Experimental data published in ChEMBL document CHEMBL4024727, “Synthesis and antimycobacterial screening of new thiazolyl-oxazole derivatives” (Eur J Med Chem, 2017).
pIC50: −log10 of the molar value. Values after ≈ are worked out from the molar mass of the structure shown.

Tests used:
Bacillus subtilis [1] = test: Antibacterial activity against Bacillus subtilis NCIM 2162 measured after 12 hrs; assay type: functional; conditions: NCIM 2162, 12 h
[2] = Selectivity index, ratio of GI50 for human HeLa cells to MIC for Mycobacterium tuberculosis H37Ra ATCC 25177 dormant stage; assay type: toxicity, cell-based; conditions: read-out: Selectivity Index
[3] = (§1) Growth inhibition of human HeLa cells by MTT assay; assay type: cell-based; conditions: HeLa cells
HeLa = test: as §1; assay type: cell-based; conditions: hela
Staphylococcus aureus [4] = test: Growth inhibition of Staphylococcus aureus NCIM 2602 at 10 ug/ml measured after 12 hrs relative to control; assay type: functional; conditions: NCIM 2602, 12 h, read-out: GI
Escherichia coli [5] = test: Growth inhibition of Escherichia coli NCIM 2576 at 30 ug/ml measured after 8 hrs relative to control; assay type: functional; conditions: NCIM 2576, 8 h, read-out: GI
Bacillus subtilis [6] = test: Growth inhibition of Bacillus subtilis NCIM 2162 at 10 ug/ml measured after 12 hrs relative to control; assay type: functional; conditions: NCIM 2162, 12 h, read-out: GI
Bacillus subtilis [7] = test: Growth inhibition of Bacillus subtilis NCIM 2162 at 1 ug/ml measured after 12 hrs relative to control; assay type: functional; conditions: NCIM 2162, 12 h, read-out: GI
[8] = system: Mycobacterium tuberculosis; test: Growth inhibition of Mycobacterium tuberculosis H37Ra ATCC 25177 at 3 ug/ml by XTT dye based two-fold dilution method relative to control; assay type: functional; conditions: read-out: GI
Pseudomonas fluorescens [9] = test: Antibacterial activity against Pseudomonas fluorescens NCIM 2059 measured after 8 hrs; assay type: functional; conditions: NCIM 2059, 8 h
Escherichia coli [10] = test: Growth inhibition of Escherichia coli NCIM 2576 at 10 ug/ml measured after 8 hrs relative to control; assay type: functional; conditions: NCIM 2576, 8 h, read-out: GI
[11] = system: Mycobacterium tuberculosis; test: Growth inhibition of Mycobacterium bovis BCG ATCC 35743 at 1 ug/ml by nitrate reductase based two-fold dilution assay relative to control; assay type: functional; conditions: BCG str. ATCC 35743, read-out: GI
[12] = system: Mycobacterium tuberculosis; test: Growth inhibition of Mycobacterium bovis BCG ATCC 35743 at 30 ug/ml by nitrate reductase based two-fold dilution assay relative to control; assay type: functional; conditions: BCG str. ATCC 35743, read-out: GI
Escherichia coli [13] = test: Antibacterial activity against Escherichia coli NCIM 2576 measured after 8 hrs; assay type: functional; conditions: NCIM 2576, 8 h
[14] = system: Mycobacterium tuberculosis; test: Growth inhibition of Mycobacterium tuberculosis H37Ra ATCC 25177 at 10 ug/ml by XTT dye based two-fold dilution method relative to control; assay type: functional; conditions: read-out: GI
[15] = system: Mycobacterium tuberculosis; test: Antitubercular activity against Mycobacterium tuberculosis H37Ra ATCC 25177 dormant stage by XTT dye based two-fold dilution method; assay type: functional
[16] = Selectivity index, ratio of GI50 for human PANC1 cells to MIC for Mycobacterium bovis BCG ATCC 35743 dormant stage; assay type: toxicity; conditions: PANC-1 cells, read-out: Selectivity Index
[17] = system: Mycobacterium tuberculosis; test: Antitubercular activity against Mycobacterium bovis BCG ATCC 35743 dormant stage by nitrate reductase based two-fold dilution assay; assay type: functional; conditions: BCG str. ATCC 35743
[18] = Selectivity index, ratio of GI50 for human A549 cells to MIC for Mycobacterium tuberculosis H37Ra ATCC 25177 dormant stage; assay type: toxicity; conditions: read-out: Selectivity Index
[19] = (§2) Growth inhibition of human PANC1 cells by MTT assay; assay type: cell-based, PANC-1; conditions: PANC-1 cells
PANC-1 = test: as §2; assay type: cell-based; conditions: panc-1
Staphylococcus aureus [20] = test: Antibacterial activity against Staphylococcus aureus NCIM 2602 measured after 12 hrs; assay type: functional; conditions: NCIM 2602, 12 h
Escherichia coli [21] = test: Growth inhibition of Escherichia coli NCIM 2576 at 1 ug/ml measured after 8 hrs relative to control; assay type: functional; conditions: NCIM 2576, 8 h, read-out: GI
[22] = system: Mycobacterium tuberculosis; test: Growth inhibition of Mycobacterium bovis BCG ATCC 35743 at 10 ug/ml by nitrate reductase based two-fold dilution assay relative to control; assay type: functional; conditions: BCG str. ATCC 35743, read-out: GI
Bacillus subtilis [23] = test: Growth inhibition of Bacillus subtilis NCIM 2162 at 30 ug/ml measured after 12 hrs relative to control; assay type: functional; conditions: NCIM 2162, 12 h, read-out: GI
Staphylococcus aureus [24] = test: Growth inhibition of Staphylococcus aureus NCIM 2602 at 30 ug/ml measured after 12 hrs relative to control; assay type: functional; conditions: NCIM 2602, 12 h, read-out: GI
[25] = Selectivity index, ratio of GI50 for human HeLa cells to MIC for Mycobacterium bovis BCG ATCC 35743 dormant stage; assay type: toxicity, cell-based; conditions: read-out: Selectivity Index
[26] = system: Mycobacterium tuberculosis; test: Growth inhibition of Mycobacterium tuberculosis H37Ra ATCC 25177 at 30 ug/ml by XTT dye based two-fold dilution method relative to control; assay type: functional; conditions: read-out: GI
Pseudomonas fluorescens [27] = test: Growth inhibition of Pseudomonas fluorescens NCIM 2059 at 1 ug/ml measured after 8 hrs relative to control; assay type: functional; conditions: NCIM 2059, 8 h, read-out: GI
[28] = (§3) Growth inhibition of human A549 cells by MTT assay; assay type: cell-based; conditions: A549 cells
A549 = test: as §3; assay type: cell-based; conditions: a549
Staphylococcus aureus [29] = test: Growth inhibition of Staphylococcus aureus NCIM 2602 at 1 ug/ml measured after 12 hrs relative to control; assay type: functional; conditions: NCIM 2602, 12 h, read-out: GI
Pseudomonas fluorescens [30] = test: Growth inhibition of Pseudomonas fluorescens NCIM 2059 at 30 ug/ml measured after 8 hrs relative to control; assay type: functional; conditions: NCIM 2059, 8 h, read-out: GI
Pseudomonas fluorescens [31] = test: Growth inhibition of Pseudomonas fluorescens NCIM 2059 at 10 ug/ml measured after 8 hrs relative to control; assay type: functional; conditions: NCIM 2059, 8 h, read-out: GI
[32] = Selectivity index, ratio of GI50 for human A549 cells to MIC for Mycobacterium bovis BCG ATCC 35743 dormant stage; assay type: toxicity; conditions: read-out: Selectivity Index
[33] = Selectivity index, ratio of GI50 for human PANC1 cells to MIC for Mycobacterium tuberculosis H37Ra ATCC 25177 dormant stage; assay type: toxicity; conditions: PANC-1 cells, read-out: Selectivity Index

In the case of Cc1nc(-c2ccc(F)cc2)oc1-c1csc(Cc2ccc(F)cc2)n1, the MIC (Bacillus subtilis [1]) was 39.1 µM (≈ 14.4 µg/mL), the selectivity ratio [2] was 148 and the GI50 [3] was 94.9 µg/mL (≈ 258 µM). For the same molecule, the GI90 (HeLa) was over 250 µg/mL, the inhibition of growth at 10 µg/mL (Staphylococcus aureus [4]) was 82.1% and the inhibition of growth at 30 µg/mL (Escherichia coli [5]) was 94.8%. The inhibition of growth at 10 µg/mL (Bacillus subtilis [6]) was 88.2%, the inhibition of growth at 1 µg/mL (Bacillus subtilis [7]) was 83.5% and the inhibition of growth at 3 µg/mL [8] was 91%. The MIC (Pseudomonas fluorescens [9]) was 54.8 µM (≈ 20.2 µg/mL), the inhibition of growth at 10 µg/mL (Escherichia coli [10]) was 85.2% and the inhibition of growth at 1 µg/mL [11] was 93%. For the same molecule, the inhibition of growth at 30 µg/mL [12] was 96%, the MIC (Escherichia coli [13]) was 60.3 µM (≈ 22.2 µg/mL) and the inhibition of growth at 10 µg/mL [14] was 93%. The pIC50 [15] was 6.74, the MIC90 [15] was 1.74 µM (≈ 0.641 µg/mL) and the selectivity ratio [16] was 385. For the same molecule, the pIC50 [17] was 6.72, the MIC90 [17] was 1.76 µM (≈ 0.648 µg/mL) and the selectivity ratio [18] was 391. For the same molecule, the GI50 [19] was over 250 µg/mL, the GI90 (PANC-1) was over 250 µg/mL and the MIC (Staphylococcus aureus [20]) was 62.7 µM (≈ 23.1 µg/mL). It also gave an inhibition of growth at 1 µg/mL (Escherichia coli [21]) of 72.2%, an inhibition of growth at 10 µg/mL [22] of 95% and an inhibition of growth at 30 µg/mL (Bacillus subtilis [23]) of 96.7%. For the same molecule, the inhibition of growth at 30 µg/mL (Staphylococcus aureus [24]) was 94.1%, the selectivity ratio [25] was 146 and the inhibition of growth at 30 µg/mL [26] was 93%. The inhibition of growth at 1 µg/mL (Pseudomonas fluorescens [27]) was 78.6%, the GI50 [28] was over 250 µg/mL and the GI90 (A549) was over 250 µg/mL. For the same molecule, the inhibition of growth at 1 µg/mL (Staphylococcus aureus [29]) was 80%, the inhibition of growth at 30 µg/mL (Pseudomonas fluorescens [30]) was 95.9% and the inhibition of growth at 10 µg/mL (Pseudomonas fluorescens [31]) was 83.2%. The selectivity ratio [32] was 385 and the selectivity ratio [33] was 391.
